Ten compounds from patent US12178791B2, “Haloallylamine sulfone derivative inhibitors of lysyl oxidases and uses thereof” (Syntara Limited, priority 2018, dated 2024) can be followed below.

Structures can show the parent of a compound that is named as a salt.

Holding throughout (format): biochemical
In assay [1] the target is Recombinant human MAO-B (Homo sapiens (Human), UniProt P27338). The assay is described as follows: Inhibition of human recombinant MAO-B. To be noted: benzylamine 100 μM. As to the method:
The specificity of the compounds of this invention was tested by determining their ability to inhibit MAO-B activities in vitro. Recombinant human MAO-B (0.06 mg/mL; Sigma Aldrich) was used as source of MAO-B enzyme activities. The assay was performed in a similar way as for human SSAO/VAP-1 (Example 28) except, the substrate benzylamine was used at 100 μM.

The target of assay [2] is T1, LOXL2 (Homo sapiens (Human), UniProt Q9Y4K0). The assay is described as follows: Jump dilution experiment, sustained inhibition of LOXL2.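 Note: 30× IC50 used only where needed so inhibitor exceeds enzyme concentration.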 To be noted: jump dilution after 40 min at 37 °C with 10× or 30× IC50; vs non-inhibited controls. On the procedure:
(§1) Jump Dilution experiment: The assay was developed using a 96 well format and the starting enzyme concentration was set 100 times higher than for the inhibition studies. […] After the incubation, the mixture was diluted 50× in assay buffer, followed by a further 2× dilution in Amplex Red-horseradish peroxidase-putrescine reaction mix (same as per the inhibition studies) prior to the fluorescent measurement. Results were expressed in % recovery of the signal after a specified time by comparison with non-inhibited controls.

For assay [3], the target named is Bovine LOX (Bos taurus (Bovine), UniProt P33072). Description: LOX inhibition, Amplex Red oxidation assay. To be noted: 30 min preincubation at 37 °C, putrescine substrate. The source says: Lysyl oxidase (LOX) is an extracellular copper dependent enzyme which oxidizes peptidyl lysine and hydroxylysine residues in collagen and lysine residues in elastin to produce peptidyl alpha-aminoadipic-delta-semialdehydes. […] There are five LOX family members; these are LOX, LOXL1, LOXL2, LOXL3 and LOXL4. LOX and LOXL family members can be acquired as recombinant active proteins from commercial sources, or extracted from animal tissues like bovine aorta, tendons, pig skin; or prepared from cell cultures. The inhibitory effects of the compounds of the present invention were tested against the given LOX-LOXL preparation using a method based on the detection of hydrogen peroxide with an Amplex Red oxidation assay (Zhou et al. A stable nonfluorescent derivative of resorufin for the fluorometric determination of trace hydrogen peroxide: applications in detecting the activity of phagocyte NADPH oxidase and other oxidases. Anal. Biochem. 1997; 253, 162-168). The assay was developed using either 384 or 96 well format. Briefly, in a standard black, clear bottom 384 well plate assay 25 μL of a dilution of any of the isoenzymes and orthologues in 1.2 M urea, 50 mM sodium borate buffer (pH 8.2) were added into each well in the presence of 1 μM mofegiline and 0.5 mM pargyline (to inhibit SSAO and MAO-B and MAO-A, respectively; not necessary if the enzyme is from a recombinant or purified form). […] Twenty five μL of a reaction mixture containing twice the KM concentration of putrescine (Sigma Aldrich, e.g. 20 mM for LOX, or 10 mM for LOXL2 and LOXL3), 120 μM Amplex Red (Sigma Aldrich) and 1.5 U/mL horseradish peroxidase (Sigma Aldrich) prepared in 1.2 M urea, 50 mM sodium borate buffer (pH 8.2) were then added to the corresponding wells. The above volumes were doubled in the case of 96 wells plate. The fluorescence (RFU) was read every 2.5 min for 30 min at […] 37° C., excitation 565 nm and emission 590 (Optima; BMG labtech). The slope of the kinetics for each well was calculated using MARS data analysis software (BMG labtech) and this value was used to deduce the IC50 value (Dotmatics).

Assay [4] addresses LOXL1 (Homo sapiens (Human), UniProt Q08397). Description: Jump dilution experiment, sustained inhibition of LOXL1.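 Note: 30× IC50 used only where needed so inhibitor exceeds enzyme concentration.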 To be noted: jump dilution after 40 min at 37 °C with 10× or 30× IC50; vs non-inhibited controls. As to the method: as §1
Assay [5] concerns the target Human recombinant SSAO/VAP-1 (Homo sapiens (Human), UniProt Q16853). The assay is described as follows: Inhibition of human recombinant SSAO/VAP-1. To be noted: 30 min preincubation at 37 °C, benzylamine 600 μM; read-out: SSAO/VAP-1 Activity IC50. As to the method: Human recombinant SSAO/VAP-1 amine oxidase activity was determined using the coupled colorimetric method as described for monoamine oxidase, copper-containing amine oxidases and related enzymes (Holt A. and Palcic M., A peroxidase-coupled continuous absorbance plate-reader assay for flavin monoamine oxidases, copper-containing amine oxidases and related enzymes. Nat Protoc 2006; 1: 2498-2505). Briefly, a cloned cDNA template corresponding to residues 34-763 of human SSAO/VAP-1, and incorporating a mouse Ig kappa (κ) signal sequence, N-terminal flag epitope tag and tobacco etch virus (TEV) cleavage site, was assembled in a mammalian expression vector (pLO-CMV) by Geneart AG. This vector containing human SSAO/VAP-1 residues was transfected into CHO-Kl glycosylation mutant cell line, Lec 8. A clone stably expressing human SSAO/VAP-1 was isolated and cultured in large scale. Active human SSAO/VAP-1 was purified and recovered using immunoaffinity chromatography. This was used as the source for SSAO/VAP-1 activity. A high-throughput colorimetric assay was developed using either 96 or 384 well format. Briefly, in a standard 96 well plate assay 50 μL of purified human SSAO/VAP-1 (0.25 μg/mL) in 0.1 M sodium phosphate buffer (pH 7.4) was added into each well. Test compounds were dissolved in DMSO and tested in a Concentration Response Curve (CRC) with 4-11 data points, typically in the micromolar or nanomolar range after incubation with human SSAO/VAP-1 for 30 min at 37° C. After 30 min incubation, 50 μL of the reaction mixture containing 600 μM benzylamine (Sigma Aldrich), 120 μM Amplex Red (Sigma Aldrich) and 1.5 U/mL horseradish peroxidase (Sigma Aldrich) prepared in 0.1 M sodium phosphate buffer (pH 7.4) were added to the corresponding well. The fluorescence unit (RFU) was read every 2.5 min for 30 min at 37° C. excitation 565 nm and emission 590 (Optima; BMG labtech). The slope of the kinetics for each well was calculated using MARS data analysis software (BMG labtech) and this value was used to deduce the IC50 value (Dotmatics).

The target in assay [6] is T1, LOXL2. Description: LOXL2 inhibition, Amplex Red oxidation assay. To be noted: 30 min preincubation at 37 °C, putrescine substrate. The source says: Lysyl oxidase (LOX) is an extracellular copper dependent enzyme which oxidizes peptidyl lysine and hydroxylysine residues in collagen and lysine residues in elastin to produce peptidyl alpha-aminoadipic-delta-semialdehydes. […] There are five LOX family members; these are LOX, LOXL1, LOXL2, LOXL3 and LOXL4. LOX and LOXL family members can be acquired as recombinant active proteins from commercial sources, or extracted from animal tissues like bovine aorta, tendons, pig skin; or prepared from cell cultures. The inhibitory effects of the compounds of the present invention were tested against the given LOX-LOXL preparation using a method based on the detection of hydrogen peroxide with an Amplex Red oxidation assay (Zhou et al. A stable nonfluorescent derivative of resorufin for the fluorometric determination of trace hydrogen peroxide: applications in detecting the activity of phagocyte NADPH oxidase and other oxidases. Anal. Biochem. 1997; 253, 162-168). The assay was developed using either 384 or 96 well format. Briefly, in a standard black, clear bottom 384 well plate assay 25 μL of a dilution of any of the isoenzymes and orthologues in 1.2 M urea, 50 mM sodium borate buffer (pH 8.2) were added into each well in the presence of 1 μM mofegiline and 0.5 mM pargyline (to inhibit SSAO and MAO-B and MAO-A, respectively; not necessary if the enzyme is from a recombinant or purified form). Test compounds were dissolved in DMSO and tested in a Concentration Response Curve (CRC) with 11 data points, typically in the micromolar or nanomolar range after incubation with the enzyme for 30 min at 37° C. Twenty five μL of a reaction mixture containing twice the KM concentration of putrescine (Sigma Aldrich, e.g. 20 mM for LOX, or 10 mM for LOXL2 and LOXL3), 120 μM Amplex Red (Sigma Aldrich) and 1.5 U/mL horseradish peroxidase (Sigma Aldrich) prepared in 1.2 M urea, 50 mM sodium borate buffer (pH 8.2) were then added to the corresponding wells. The above volumes were doubled in the case of 96 wells plate. The fluorescence (RFU) was read every 2.5 min for 30 min at […] 37° C., excitation 565 nm and emission 590 (Optima; BMG labtech). The slope of the kinetics for each well was calculated using MARS data analysis software (BMG labtech) and this value was used to deduce the IC50 value (Dotmatics).

T1 sequence (Q9Y4K0 26-774): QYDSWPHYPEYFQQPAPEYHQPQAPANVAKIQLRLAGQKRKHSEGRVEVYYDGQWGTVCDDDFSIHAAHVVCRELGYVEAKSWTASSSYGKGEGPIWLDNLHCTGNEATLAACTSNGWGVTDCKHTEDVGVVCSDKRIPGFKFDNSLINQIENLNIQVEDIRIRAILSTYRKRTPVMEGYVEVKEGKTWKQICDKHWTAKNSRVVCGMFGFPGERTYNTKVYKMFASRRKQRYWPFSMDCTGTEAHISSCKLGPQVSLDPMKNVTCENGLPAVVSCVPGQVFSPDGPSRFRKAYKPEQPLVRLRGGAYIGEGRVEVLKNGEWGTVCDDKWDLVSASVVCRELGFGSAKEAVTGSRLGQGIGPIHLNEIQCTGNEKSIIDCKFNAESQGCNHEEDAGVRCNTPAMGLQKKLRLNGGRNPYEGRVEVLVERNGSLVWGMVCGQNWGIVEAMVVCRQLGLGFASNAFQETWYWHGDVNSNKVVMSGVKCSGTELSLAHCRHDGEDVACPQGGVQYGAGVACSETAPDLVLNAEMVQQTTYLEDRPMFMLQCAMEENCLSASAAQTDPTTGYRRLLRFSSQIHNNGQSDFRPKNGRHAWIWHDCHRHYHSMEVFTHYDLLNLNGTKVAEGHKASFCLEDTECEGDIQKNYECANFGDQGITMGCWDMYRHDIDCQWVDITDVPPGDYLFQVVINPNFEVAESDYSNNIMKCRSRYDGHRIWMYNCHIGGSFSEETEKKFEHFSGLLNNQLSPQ
Sequence of Bovine LOX (P33072 170-418): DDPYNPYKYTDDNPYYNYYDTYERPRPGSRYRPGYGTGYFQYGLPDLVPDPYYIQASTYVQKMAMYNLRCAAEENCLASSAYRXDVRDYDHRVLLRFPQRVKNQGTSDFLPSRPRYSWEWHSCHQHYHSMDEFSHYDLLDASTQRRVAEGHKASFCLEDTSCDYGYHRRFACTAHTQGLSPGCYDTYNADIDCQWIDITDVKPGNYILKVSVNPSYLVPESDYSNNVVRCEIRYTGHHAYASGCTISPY
Sequence of LOXL1 (Q08397 96-574, species assumed): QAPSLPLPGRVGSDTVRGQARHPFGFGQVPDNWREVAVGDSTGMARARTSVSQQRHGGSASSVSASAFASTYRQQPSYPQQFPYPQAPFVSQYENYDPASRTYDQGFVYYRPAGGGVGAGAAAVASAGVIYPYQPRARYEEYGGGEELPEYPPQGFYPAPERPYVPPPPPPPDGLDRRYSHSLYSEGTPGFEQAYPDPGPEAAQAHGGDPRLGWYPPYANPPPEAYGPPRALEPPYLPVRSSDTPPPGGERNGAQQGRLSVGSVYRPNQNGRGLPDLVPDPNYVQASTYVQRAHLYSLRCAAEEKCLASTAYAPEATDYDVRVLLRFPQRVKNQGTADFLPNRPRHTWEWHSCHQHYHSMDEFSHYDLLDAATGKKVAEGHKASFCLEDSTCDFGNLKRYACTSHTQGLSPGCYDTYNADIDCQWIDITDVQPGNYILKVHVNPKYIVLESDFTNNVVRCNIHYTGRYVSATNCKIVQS
Sequence of Recombinant human MAO-B (P27338 whole entry): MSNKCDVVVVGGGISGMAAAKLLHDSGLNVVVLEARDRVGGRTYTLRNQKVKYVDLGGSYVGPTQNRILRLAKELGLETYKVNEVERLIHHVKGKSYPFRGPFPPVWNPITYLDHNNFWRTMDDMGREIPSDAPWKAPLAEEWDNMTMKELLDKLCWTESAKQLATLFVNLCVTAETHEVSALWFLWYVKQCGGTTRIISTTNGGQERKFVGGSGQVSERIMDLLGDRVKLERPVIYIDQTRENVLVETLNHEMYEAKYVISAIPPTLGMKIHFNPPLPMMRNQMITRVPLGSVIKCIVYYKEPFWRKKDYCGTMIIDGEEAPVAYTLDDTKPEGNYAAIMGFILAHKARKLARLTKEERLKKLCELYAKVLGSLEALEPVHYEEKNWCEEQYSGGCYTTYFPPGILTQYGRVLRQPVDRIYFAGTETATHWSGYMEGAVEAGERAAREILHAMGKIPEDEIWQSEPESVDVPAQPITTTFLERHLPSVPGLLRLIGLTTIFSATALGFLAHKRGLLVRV
Sequence of Human recombinant SSAO/VAP-1 (Q16853 34-763): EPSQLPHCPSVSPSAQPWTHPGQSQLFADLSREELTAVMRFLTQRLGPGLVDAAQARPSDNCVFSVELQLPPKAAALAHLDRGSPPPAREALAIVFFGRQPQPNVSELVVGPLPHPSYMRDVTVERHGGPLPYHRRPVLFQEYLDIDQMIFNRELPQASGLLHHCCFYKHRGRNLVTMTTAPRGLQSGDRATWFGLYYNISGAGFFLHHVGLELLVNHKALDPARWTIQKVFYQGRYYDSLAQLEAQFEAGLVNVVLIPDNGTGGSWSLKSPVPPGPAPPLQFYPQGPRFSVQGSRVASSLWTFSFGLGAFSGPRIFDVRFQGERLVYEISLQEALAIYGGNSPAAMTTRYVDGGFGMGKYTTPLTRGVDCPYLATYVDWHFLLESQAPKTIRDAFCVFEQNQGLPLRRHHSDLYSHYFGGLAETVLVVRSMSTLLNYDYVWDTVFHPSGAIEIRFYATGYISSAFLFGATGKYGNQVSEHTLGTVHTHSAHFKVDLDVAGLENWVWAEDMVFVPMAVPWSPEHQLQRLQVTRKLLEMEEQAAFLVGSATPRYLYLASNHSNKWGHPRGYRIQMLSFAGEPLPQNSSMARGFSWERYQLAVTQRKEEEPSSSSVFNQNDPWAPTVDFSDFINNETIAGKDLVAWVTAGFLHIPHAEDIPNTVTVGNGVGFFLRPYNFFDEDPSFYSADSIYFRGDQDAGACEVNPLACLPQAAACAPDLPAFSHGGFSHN

`NC/C=C(\F)CS(=O)(=O)c1ccc(C(=O)NC23CC4CC(CC(C4)C2)C3)cc1` [Compound 4, N-(adamantan-1-yl)-4-(((Z)-4-amino-2-fluorobut-2-en-1-yl)sulfonyl)benzamide hydrochloride]: the IC50 is less than 10 µM in assay [1], less than 10 µM in assay [3], more than 30 µM in assay [5] and less than 10 µM in assay [6]. Further, the “LOXL2 - Recovery of activity. (%)” value in assay [2] amounted to 21.2%. Moreover, in assay [4], the “LOXL1 - Recovery of activity. (%)” value was determined as 16.7%.

For the compound `CN(C)S(=O)(=O)c1ccc(COc2ccccc2S(=O)(=O)C/C(F)=C/CN)cc1` [Compound 5, (Z)-4-((2-((4-amino-2-fluorobut-2-en-1-yl)sulfonyl)phenoxy)methyl)-N,N-dimethylbenzenesulfonamide hydrochloride], the IC50 in assay [1] is more than 30 µM; in assay [3], less than 1 µM; in assay [5], more than 30 µM; in assay [6], less than 1 µM. For the same compound, in assay [2], the “LOXL2 - Recovery of activity. (%)” value is given as 10.0%. The “LOXL1 - Recovery of activity. (%)” value in assay [4] worked out at 3.6%.

`CN(C)S(=O)(=O)c1ccc(Oc2ccccc2S(=O)(=O)C/C(F)=C/CN)cc1` [Compound 6, (Z)-4-(2-((4-amino-2-fluorobut-2-en-1-yl)sulfonyl)phenoxy)-N,N-dimethylbenzenesulfonamide hydrochloride]: the IC50 in assay [1] is more than 30 µM; in assay [3], less than 10 µM; in assay [5] it was more than 30 µM; in assay [6], less than 1 µM. For the same compound, the “LOXL2 - Recovery of activity. (%)” value in assay [2] was 10.4%. The “LOXL1 - Recovery of activity. (%)” value in assay [4] was found to be 2.5%.

On to `CN(C)S(=O)(=O)c1ccc(COc2ccc(S(=O)(=O)C/C(F)=C/CN)cc2)cc1` [Compound 10, (Z)-4-((4-((4-amino-2-fluorobut-2-en-1-yl)sulfonyl)phenoxy)methyl)-N,N-dimethylbenzenesulfonamide hydrochloride], for which the IC50 was more than 30 µM in assay [1], less than 10 µM in assay [3], more than 30 µM in assay [5] and less than 10 µM in assay [6]. Also, in assay [2], the “LOXL2 - Recovery of activity. (%)” value is on record as 15.2%.

For `CC(C)N(C(C)C)S(=O)(=O)c1ccc(COc2ccccc2S(=O)(=O)C/C(F)=C/CN)cc1` [Compound 11, (Z)-4-((2-((4-amino-2-fluorobut-2-en-1-yl)sulfonyl)phenoxy)methyl)-N,N-diisopropylbenzenesulfonamide hydrochloride], the IC50 was more than 30 µM in assay [1], less than 1 µM in assay [3], more than 30 µM in assay [5] and less than 1 µM in assay [6]. Moreover, the “LOXL1 - Recovery of activity. (%)” value in assay [4] stood at 10.2%.

On to `CC(C)NS(=O)(=O)c1ccc(COc2ccccc2S(=O)(=O)C/C(F)=C/CN)cc1` [Compound 14, (Z)-4-((2-((4-amino-2-fluorobut-2-en-1-yl)sulfonyl)phenoxy)methyl)-N-isopropylbenzenesulfonamide hydrochloride], for which the IC50 in assay [1] was more than 30 µM; in assay [3], less than 1 µM; in assay [5], more than 30 µM; in assay [6], less than 1 µM. Besides, the “LOXL1 - Recovery of activity. (%)” value in assay [4] was 1.9%.

As to `CC(C)N(C(C)C)S(=O)(=O)c1ccc(NC(=O)c2ccccc2S(=O)(=O)C/C(F)=C/CN)cc1` [Compound 15, (Z)-2-((4-amino-2-fluorobut-2-en-1-yl)sulfonyl)-N-(4-(N,N-diisopropylsulfamoyl)phenyl)benzamide hydrochloride], the IC50 in assay [1] is more than 30 µM; in assay [3], less than 10 µM; in assay [5], more than 30 µM; in assay [6] it was less than 1 µM. In assay [4], the “LOXL1 - Recovery of activity. (%)” value is listed as 26.1%.

For `CN(C)S(=O)(=O)c1ccc(Oc2cccc(S(=O)(=O)C/C(F)=C/CN)c2)cc1` [Compound 16, (Z)-4-(3-(4-amino-2-fluorobut-2-enylsulfonyl)phenoxy)-N,N-dimethylbenzenesulfonamide hydrochloride], in assay [2], the “LOXL2 - Recovery of activity. (%)” value was 14.4%. Also, the IC50 in assay [3] and in assay [6] was less than 1 µM throughout.

Turning to `CN(C)S(=O)(=O)c1cccc(Oc2cccc(S(=O)(=O)C/C(F)=C/CN)c2)c1` [Compound 17, (Z)-3-(3-(4-amino-2-fluorobut-2-enylsulfonyl)phenoxy)-N,N-dimethylbenzenesulfonamide hydrochloride], in assay [2], the “LOXL2 - Recovery of activity. (%)” value is reported as 5.3%. Also, the IC50 in assay [3] was less than 10 µM; in assay [6] it was less than 1 µM.

For the compound `CN(C)S(=O)(=O)c1cccc(Oc2ccccc2S(=O)(=O)C/C(F)=C/CN)c1` [Compound 18, (Z)-3-(2-(4-amino-2-fluorobut-2-enylsulfonyl)phenoxy)-N,N-dimethylbenzenesulfonamide hydrochloride], the “LOXL2 - Recovery of activity. (%)” value in assay [2] is on record as 6.9%. Moreover, the IC50 in assay [3] and in assay [6] was less than 1 µM each time.
